Several values for one entry are separate records, joined by “and”; a condition that tells them apart may be missing. Identical values can stand only once. Toxic doses and inconclusive results are not listed. Cut-off read from the data, not from the text of the source: active = T/C of 150% or more; inactive = T/C below 125%.
System: L1210 leukemia ip in BDF1 mice, survival T/C
Test: NCI In Vivo Anticancer Drug Screen. Data for tumor model L1210 Leukemia (intraperitoneal) in B6D2F1 (BDF1) mice
Conditions: endpoint: mean survival time, higher = longer survival
Procedure, shortened: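 Transplantable tumor model; survival measured in treated vs vehicle control mice. Value = treated/control.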

[1] = dose: 25.0 mg/kg/injection, schedule: Q01DX001 (ip), vehicle: carboxymethylcellulose (CMC)
[2] = dose: 100.0 mg/kg/injection, schedule: Q04DX002 (ip), vehicle: Klucel (hydroxypropylcellulose) (HPC)
[3] = dose: 200.0 mg/kg/injection, schedule: Q04DX002 (ip), vehicle: Klucel (hydroxypropylcellulose) (HPC)
[4] = dose: 400.0 mg/kg/injection, schedule: Q04DX002 (ip), vehicle: Klucel (hydroxypropylcellulose) (HPC)
[5] = dose: 100.0 mg/kg/injection, schedule: Q01DX009 (ip), vehicle: saline
[6] = dose: 100.0 mg/kg/injection, schedule: Q04DX003 (ip), vehicle: saline
[7] = dose: 200.0 mg/kg/injection, schedule: Q01DX009 (ip), vehicle: saline
[8] = dose: 200.0 mg/kg/injection, schedule: Q04DX003 (ip), vehicle: saline
[9] = dose: 400.0 mg/kg/injection, schedule: Q01DX009 (ip), vehicle: saline
[10] = dose: 400.0 mg/kg/injection, schedule: Q04DX003 (ip), vehicle: saline
[11] = dose: 12.5 mg/kg/injection, schedule: Q01DX009 (ip), vehicle: saline with Tween-80
[12] = dose: 100.0 mg/kg/injection, schedule: Q01DX001 (ip), vehicle: Klucel (hydroxypropylcellulose) (HPC)
[13] = dose: 200.0 mg/kg/injection, schedule: Q01DX001 (ip), vehicle: Klucel (hydroxypropylcellulose) (HPC)
[14] = dose: 400.0 mg/kg/injection, schedule: Q01DX001 (ip), vehicle: Klucel (hydroxypropylcellulose) (HPC)
[15] = dose: 100.0 mg/kg/injection, schedule: Q04DX003 (ip), vehicle: Klucel (hydroxypropylcellulose) (HPC)
[16] = dose: 200.0 mg/kg/injection, schedule: Q04DX003 (ip), vehicle: Klucel (hydroxypropylcellulose) (HPC)
[17] = dose: 400.0 mg/kg/injection, schedule: Q04DX003 (ip), vehicle: Klucel (hydroxypropylcellulose) (HPC)
[18] = dose: 100.0 mg/kg/injection, schedule: Q01DX009 (ip), vehicle: Klucel (hydroxypropylcellulose) (HPC)
[19] = dose: 200.0 mg/kg/injection, schedule: Q01DX009 (ip), vehicle: Klucel (hydroxypropylcellulose) (HPC)
[20] = dose: 400.0 mg/kg/injection, schedule: Q01DX009 (ip), vehicle: Klucel (hydroxypropylcellulose) (HPC)
[21] = dose: 75.0 mg/kg/injection, schedule: Q01DX001 (ip), vehicle: saline

Measured: T/C

Cc1cc(O)c2cc3c(O)c(O)ccc3cc2c1
inactive: dose: 0.5 mg/kg/injection, schedule: Q01DX015 (ip), vehicle: saline 94 % of control | dose: 1.0 mg/kg/injection, schedule: Q01DX015 (ip), vehicle: saline 96 % of control | dose: 2.0 mg/kg/injection, schedule: Q01DX015 (ip), vehicle: saline 96 % of control | dose: 4.0 mg/kg/injection, schedule: Q01DX015 (ip), vehicle: saline 100 % of control and 109 % of control | dose: 5.0 mg/kg/injection, schedule: Q01DX001 (ip), vehicle: saline 112 % of control | dose: 6.2 mg/kg/injection, schedule: Q01DX001 (ip), vehicle: carboxymethylcellulose (CMC) 108 % of control | dose: 8.0 mg/kg/injection, schedule: Q01DX015 (ip), vehicle: saline 103 % of control | dose: 10.0 mg/kg/injection, schedule: Q01DX001 (ip), vehicle: saline 115 % of control | dose: 12.5 mg/kg/injection, schedule: Q01DX001 (ip), vehicle: carboxymethylcellulose (CMC) 104 % of control | [1] 110 % of control

Cc1nonc1NC(=O)OCc1ccccc1
inactive: [2] 97 % of control | [3] 93 % of control | [4] 104 % of control

COC(=O)c1cc(C)n(C)c(=O)c1CNC(=O)c1ccccc1
inactive: [5] 97 % of control | [6] 107 % of control | [7] 96 % of control | [8] 97 % of control | [9] 97 % of control | [10] 91 % of control

Cc1ccc(S(=O)(=O)Nc2ncc([N+](=O)[O-])s2)cc1
inactive: [11] 101 % of control | dose: 25.0 mg/kg/injection, schedule: Q01DX009 (ip), vehicle: saline with Tween-80 101 % of control | dose: 50.0 mg/kg/injection, schedule: Q01DX009 (ip), vehicle: saline with Tween-80 98 % of control and 90 % of control

CCCCOP(=O)(OCCCC)Oc1cccc([N+](=O)[O-])c1
inactive: dose: 6.25 mg/kg/injection, schedule: Q01DX009 (ip), vehicle: carboxymethylcellulose (CMC) 117 % of control and 89 % of control | dose: 6.25 mg/kg/injection, schedule: Q04DX002 (ip), vehicle: carboxymethylcellulose (CMC) 93 % of control and 101 % of control | dose: 12.5 mg/kg/injection, schedule: Q01DX009 (ip), vehicle: carboxymethylcellulose (CMC) 110 % of control and 89 % of control | dose: 12.5 mg/kg/injection, schedule: Q04DX002 (ip), vehicle: carboxymethylcellulose (CMC) 93 % of control and 101 % of control | [1] 104 % of control | dose: 25.0 mg/kg/injection, schedule: Q01DX009 (ip), vehicle: carboxymethylcellulose (CMC) 98 % of control and 92 % of control | dose: 50.0 mg/kg/injection, schedule: Q01DX001 (ip), vehicle: carboxymethylcellulose (CMC) 100 % of control

CCOC(=O)C(CCC#N)C1=NC(C)(C)CC(C)O1 (stereo unspecified)
inactive: [12] 97 % of control | [13] 101 % of control | [14] 103 % of control

COC1CCC(NC(=O)NCCCl)CC1 (stereo unspecified)
inactive: [12] 95 % of control | [15] 103 % of control | [13] 102 % of control | [16] 97 % of control | [14] 95 % of control | [17] 97 % of control

O=C(O)c1cc2ccccc2c(N=Nc2ccc(S(=O)(=O)N(CCCl)CCCl)cc2)c1O
inactive: [18] 113 % of control | [19] 103 % of control | [20] 111 % of control

CN1CC(COC(=O)Cc2c[nH]c3ccccc23)C=C2c3cccc4[nH]cc(c34)CC21 (stereo unspecified)
inactive: dose: 25.0 mg/kg/injection, schedule: Q04DX003 (ip), vehicle: alcohol 98 % of control | dose: 50.0 mg/kg/injection, schedule: Q04DX003 (ip), vehicle: alcohol 96 % of control | dose: 100.0 mg/kg/injection, schedule: Q04DX003 (ip), vehicle: alcohol 102 % of control | dose: 200.0 mg/kg/injection, schedule: Q04DX003 (ip), vehicle: alcohol 96 % of control | dose: 400.0 mg/kg/injection, schedule: Q04DX003 (ip), vehicle: alcohol 96 % of control

Cc1c(Cl)cccc1NC(=O)C(c1ccccc1)c1ccccc1
inactive: [18] 89 % of control | [15] 101 % of control | [19] 94 % of control | [16] 86 % of control | [20] 93 % of control | [17] 91 % of control

CC1(C)C[N+](C)(Cc2ccccc2)N=C1[O-] (stereo unspecified)
inactive: dose: 25.0 mg/kg/injection, schedule: Q01DX001 (ip), vehicle: saline 94 % of control | dose: 50.0 mg/kg/injection, schedule: Q01DX001 (ip), vehicle: saline 94 % of control | dose: 100.0 mg/kg/injection, schedule: Q01DX001 (ip), vehicle: saline 94 % of control | dose: 200.0 mg/kg/injection, schedule: Q01DX001 (ip), vehicle: saline 102 % of control

[Cl][Hg][c]1ccccc1N=Nc1ccccc1
inactive: dose: 3.0 mg/kg/injection, schedule: Q01DX009 (ip), vehicle: saline with Tween-80 90 % of control | dose: 6.0 mg/kg/injection, schedule: Q01DX009 (ip), vehicle: saline with Tween-80 101 % of control | dose: 12.0 mg/kg/injection, schedule: Q01DX009 (ip), vehicle: saline with Tween-80 98 % of control | [11] 100 % of control

COC(=O)c1ccc[n+](CCc2ccc(OC)c(OC)c2)c1
inactive: [21] 111 % of control

FC(F)(F)c1cccc(-n2nncc2-c2ccc(Cl)cc2)c1
inactive: [2] 96 % of control | [3] 101 % of control | [4] 96 % of control

CCOC(=O)CC1C(C)C(C)NC(C)C1C (stereo unspecified)
inactive: [21] 94 % of control | dose: 150.0 mg/kg/injection, schedule: Q01DX001 (ip), vehicle: saline 103 % of control

Cc1nc(Cl)c2cnccn12
inactive: dose: 12.5 mg/kg/injection, schedule: Q01DX009 (ip), vehicle: saline 101 % of control | dose: 25.0 mg/kg/injection, schedule: Q01DX009 (ip), vehicle: saline 105 % of control | dose: 50.0 mg/kg/injection, schedule: Q01DX009 (ip), vehicle: saline 103 % of control | [6] 88 % of control

CC(CCOCC1CO1)OCC1CO1 (stereo unspecified)
inactive: [5] 101 % of control | [6] 106 % of control | [7] 113 % of control | [8] 105 % of control | [9] 120 % of control | [10] 120 % of control

CCS(=O)(=O)Cc1ccccc1
inactive: [18] 100 % of control | [19] 106 % of control | [20] 102 % of control

O=C(O)C(Nc1cccc2ccccc12)c1ccccc1 (stereo unspecified)
inactive: [2] 97 % of control | [3] 111 % of control

O=C(Cc1ccccc1)NCc1ccc(Cl)cc1
inactive: dose: 100.0 mg/kg/injection, schedule: Q04DX002 (ip), vehicle: saline with Tween-80 96 % of control | dose: 200.0 mg/kg/injection, schedule: Q04DX002 (ip), vehicle: saline with Tween-80 101 % of control | dose: 400.0 mg/kg/injection, schedule: Q04DX002 (ip), vehicle: saline with Tween-80 114 % of control

COc1cc(Cl)ccc1NC(=O)Oc1ccc(F)cc1
inactive: [5] 123 % of control | [7] 101 % of control | [9] 115 % of control

NCCC1CCCCN1 (stereo unspecified)
inactive: dose: 100.0 mg/kg/injection, schedule: Q04DX003 (ip), vehicle: acetone 108 % of control | dose: 150.0 mg/kg/injection, schedule: Q01DX009 (ip), vehicle: saline 117 % of control | dose: 225.0 mg/kg/injection, schedule: Q01DX009 (ip), vehicle: saline 101 % of control | dose: 335.0 mg/kg/injection, schedule: Q01DX009 (ip), vehicle: saline 110 % of control

— PubChem BioAssay AID248 (DTP/NCI, 2004)
